Experimental data: the NIST ThermoML archive (doi:10.1016/j.jct.2007.08.008)
“And” between values parts separate entries of the source, which are not always exact repeats. Identical values can stand only once. Numbers after ± are expanded uncertainties.

Conditions: Crystal; for mass density: 298.15 K, 101.33 kPa, measurement of volume and mass of pellet; for vapor or sublimation pressure: Calculated from knudsen effusion weight loss

c1ccc(-c2cccc(-c3ccccc3)c2)cc1 [m-terphenyl]
Conditions | mass density [kg/m3] | vapor or sublimation pressure
– | 1140 ± 20 | –
337.28 K | – | 6.28e-05 ± 3.2e-06 kPa and 6.44e-05 ± 3.2e-06 kPa and 6.48e-05 ± 3.3e-06 kPa
339.22 K | – | 8.09e-05 ± 4.1e-06 kPa and 8.13e-05 ± 4.1e-06 kPa and 7.88e-05 ± 4e-06 kPa
341.11 K | – | 0.000101 ± 5e-06 kPa and 9.73e-05 ± 4.9e-06 kPa
343.27 K | – | 0.000133 ± 7e-06 kPa and 0.00013 ± 1e-05 kPa and 0.000134 ± 7e-06 kPa
345.21 K | – | 0.000164 ± 8e-06 kPa and 0.000163 ± 8e-06 kPa and 0.000162 ± 8e-06 kPa
347.1 K | – | 0.000197 ± 1e-05 kPa and 0.000204 ± 1e-05 kPa
349.27 K | – | 0.000263 ± 1.3e-05 kPa and 0.000257 ± 1.3e-05 kPa and 0.000264 ± 1.3e-05 kPa
351.2 K | – | 0.000324 ± 1.6e-05 kPa and 0.000328 ± 1.6e-05 kPa
353.11 K | – | 0.000403 ± 2e-05 kPa and 0.000399 ± 2e-05 kPa
355.28 K | – | 0.000518 ± 2.6e-05 kPa and 0.000524 ± 2.6e-05 kPa and 0.000532 ± 2.7e-05 kPa
357.19 K | – | 0.000655 ± 3.3e-05 kPa and 0.00065 ± 3.3e-05 kPa and 0.000648 ± 3.2e-05 kPa
359.1 K | – | 0.000797 ± 4e-05 kPa and 0.00081 ± 4.1e-05 kPa and 0.000807 ± 4e-05 kPa

c1ccc(-c2ccccc2-c2ccccc2)cc1 [o-terphenyl]
Conditions | mass density [kg/m3] | vapor or sublimation pressure
– | 1120 ± 20 | –
312.3 K | – | 6.04e-05 ± 3e-06 kPa and 6.13e-05 ± 3.1e-06 kPa and 5.87e-05 ± 2.9e-06 kPa
313.79 K | – | 7.08e-05 ± 3.6e-06 kPa and 7.16e-05 ± 3.6e-06 kPa
315.13 K | – | 8.28e-05 ± 4.2e-06 kPa
315.14 K | – | 8.47e-05 ± 4.2e-06 kPa and 8.48e-05 ± 4.3e-06 kPa
315.78 K | – | 7.29e-05 ± 1.2e-05 kPa
316.78 K | – | 0.000103 ± 5e-06 kPa and 0.000102 ± 5e-06 kPa and 0.000104 ± 5e-06 kPa
318.28 K | – | 0.000125 ± 6e-06 kPa and 0.000123 ± 6e-06 kPa and 0.000124 ± 6e-06 kPa
319.64 K | – | 0.000143 ± 7e-06 kPa and 0.000145 ± 7e-06 kPa and 0.000148 ± 7e-06 kPa
321.28 K | – | 0.000181 ± 9e-06 kPa and 0.000179 ± 9e-06 kPa and 0.000174 ± 9e-06 kPa
322.78 K | – | 0.000217 ± 1.1e-05 kPa and 0.000212 ± 1.1e-05 kPa
324.14 K | – | 0.000247 ± 1.2e-05 kPa and 0.000249 ± 1.2e-05 kPa
325.78 K | – | 0.000305 ± 1.5e-05 kPa and 0.000308 ± 1.5e-05 kPa and 0.0003 ± 1.5e-05 kPa
327.28 K | – | 0.000368 ± 1.8e-05 kPa and 0.00036 ± 1.8e-05 kPa and 0.000361 ± 1.8e-05 kPa
328.63 K | – | 0.000419 ± 2.1e-05 kPa and 0.000422 ± 2.1e-05 kPa and 0.000423 ± 2.1e-05 kPa

c1ccc(-c2ccc(-c3ccccc3)cc2)cc1 [p-terphenyl]
Conditions | mass density [kg/m3] | vapor or sublimation pressure
– | 1200 ± 20 | –
373.27 K | – | 0.000127 ± 6e-06 kPa and 0.000126 ± 6e-06 kPa and 0.000125 ± 6e-06 kPa
375.22 K | – | 0.000154 ± 8e-06 kPa and 0.000153 ± 8e-06 kPa
377.14 K | – | 0.000185 ± 9e-06 kPa and 0.000189 ± 9e-06 kPa and 0.000182 ± 9e-06 kPa
379.28 K | – | 0.000232 ± 1.2e-05 kPa and 0.000233 ± 1.2e-05 kPa and 0.000234 ± 1.2e-05 kPa
381.21 K | – | 0.00028 ± 2e-05 kPa and 0.000283 ± 1.4e-05 kPa and 0.000281 ± 1.4e-05 kPa
383.28 K | – | 0.000344 ± 1.7e-05 kPa and 0.000347 ± 1.7e-05 kPa and 0.000348 ± 1.7e-05 kPa
385.17 K | – | 0.000421 ± 2.1e-05 kPa and 0.000417 ± 2.1e-05 kPa
387.12 K | – | 0.000516 ± 2.6e-05 kPa and 0.000498 ± 2.5e-05 kPa
389.27 K | – | 0.000628 ± 3.1e-05 kPa and 0.000626 ± 3.1e-05 kPa and 0.000631 ± 3.2e-05 kPa
391.16 K | – | 0.000748 ± 3.7e-05 kPa and 0.000758 ± 3.8e-05 kPa and 0.000757 ± 3.8e-05 kPa
393.22 K | – | 0.000928 ± 4.6e-05 kPa and 0.000931 ± 4.7e-05 kPa and 0.000922 ± 4.6e-05 kPa
395.27 K | – | 0.001137 ± 0.00012 kPa and 0.001131 ± 0.00012 kPa and 0.001138 ± 0.00012 kPa
